Here are results for 14 compounds from ChEMBL document CHEMBL5257035, “Nucleoside Derived Antibiotics to Fight Microbial Drug Resistance: New Utilities for an Established Class of Drugs?” (J Med Chem, 2016).

For one data set, the system named is Pseudomonas aeruginosa. Put plainly: Antimicrobial activity against Pseudomonas aeruginosa M35 assessed as reduction in microbial growth. The class given is functional.
Another data set concerns Enterococcus faecalis. In words: Antimicrobial activity against Enterococcus faecalis 10785 assessed as reduction in microbial growth by broth microdilution method. The class given is functional.
For another data set, the system named is Staphylococcus aureus. In words: Antimicrobial activity against methicillin-resistant Staphylococcus aureus assessed as reduction in microbial growth by broth microdilution method. It counts as functional. (In broth dilution the organism is exposed to a series of concentrations in liquid medium.)
Data set [1] in a line: Inhibition of Bacterial MraY. Details: species or system Bacteria.
The next data set relates to Mycobacterium kansasii. Put plainly: Antimycobacterial activity against Mycobacterium kansasii assessed as microbial growth reduction. The class given is functional.
Another data set has as its system Mycobacterium avium. Put plainly: Antimycobacterial activity against Mycobacterium avium assessed as microbial growth reduction. The class given is functional.
Data set [2] deals with Mycobacterium intracellulare. In words: Antimycobacterial activity against Mycobacterium intracellulare assessed as microbial growth reduction. It counts as functional.
Another data set concerns Cryptococcus neoformans. In words: Antifungal activity against Cryptococcus neoformans assessed as fungal growth inhibition measured after 24 hrs by micro broth dilution method. The class given is functional.
The subject of another data set is Candida albicans. Put plainly: Antifungal activity against Candida albicans assessed as fungal growth inhibition measured after 24 hrs by micro broth dilution method. It counts as functional.
A further data set has as its system Aspergillus fumigatus. Put plainly: Antifungal activity against Aspergillus fumigatus assessed as fungal growth inhibition. It counts as functional.
Data set [3] can be described thus: Cytotoxicity against human HepG2 cells assessed as reduction in cell viability incubated for 72 hrs by MTT assay. It counts as toxicity, cell-based. Background: Tetrazolium assays rely on reduction of a dye to a coloured formazan, in cell work by metabolically active cells.

Values after ≈ are worked out from the molar mass of the structure shown.

On to `CSCC[C@H](NC(=O)N[C@@H](Cc1cccc(O)c1)C(=O)O)C(=O)NC(CN(C)C(=O)C1Cc2ccc(O)cc2C(C)N1)C(=O)N/C=C1/C[C@@H](O)[C@H](N2CCC(=O)NC2=O)O1` (stereo partly drawn), for which the MIC (usually the lowest concentration found to suppress growth) in the data set on Pseudomonas aeruginosa was 6.25 µg/mL.

Consider `CC(C)[C@H](O)[C@H](N)C(=O)NCCCN[C@H](C(=O)OC(C)(C)C)[C@@H](O)[C@H]1O[C@@H](n2ccc(=O)[nH]c2=O)[C@H](O[Si](C)(C)C(C)(C)C)[C@@H]1O[Si](C)(C)C(C)(C)C`, for which the MIC with Enterococcus faecalis and with Staphylococcus aureus was 1 µg/mL in each case.

Consider `CSCC[C@H](NC(=O)N[C@@H](Cc1cccc(O)c1)C(=O)O)C(=O)NC(CN(C)C(=O)C1Cc2ccc(O)cc2CN1)C(=O)N/C=C1/C[C@@H](O)[C@H](n2ccc(=O)[nH]c2=O)O1` (stereo partly drawn), for which, in the data set on Pseudomonas aeruginosa, the MIC turned out to be 6.25 µg/mL.

As to `CCC(C)CCCCCCC/C(C)=C/C(C)=C/C(=O)NCC(=O)N[C@H]1[C@H](OP(=O)(O)OC(C(=O)O)C(C[C@H]2O[C@@H](n3ccc(=O)[nH]c3=O)[C@H](O)[C@@H]2O)O[C@@H]2O[C@H](CO)[C@@H](O)[C@H](O)[C@H]2O)O[C@H](CO)[C@@H](O)[C@@H]1O` (stereo partly drawn), the MIC in the data set with Enterococcus faecalis came out at 50 µg/mL; with Staphylococcus aureus, 100 µg/mL. For the same compound, the IC50 (as a rule, the point on the concentration scale where inhibition reaches its midpoint) in [1] was 1100 nM.

In the case of `CSCC[C@H](NC(=O)N[C@@H](Cc1cccc(O)c1)C(=O)O)C(=O)NC(CN(C)C(=O)C1Cc2ccc(O)cc2C(C)N1)C(=O)N/C=C1/C[C@@H](O)[C@H](n2ccc(=O)[nH]c2=O)O1` (stereo partly drawn), in the data set with Pseudomonas aeruginosa, the MIC amounted to 6.25 µg/mL.

As for `CCCCCCCCCCCCCCC(=O)O[C@@H]1[C@H](OC)[C@@H]([C@@H](O[C@@H]2OC(C(=O)N[C@H]3CCC[C@@H](C)NC3=O)=C[C@@H](O)[C@H]2O)C(N)=O)O[C@H]1n1ccc(=O)[nH]c1=O`, the MIC (in the data set on Mycobacterium kansasii; in the data set with Mycobacterium avium; in [2]) was 0.063 µg/mL (≈ 0.078 µM) throughout.

With `C=CCSC[C@H]1O[C@@H](n2cnc3c([N+](=O)[O-])cccc32)[C@H](O)[C@@H]1O`, the MIC with Cryptococcus neoformans, in the data set with Candida albicans and in the data set with Aspergillus fumigatus was 0.19 µM (≈ 0.0668 µg/mL) throughout.

As for `Nc1cccc2c1ncn2[C@@H]1O[C@H](CSCCC(=O)O)[C@@H](O)[C@H]1O`, the MIC in the data set on Cryptococcus neoformans, in the data set with Candida albicans and in the data set with Aspergillus fumigatus was 0.19 µM (≈ 0.0671 µg/mL) throughout.

As for `CSCC[C@H](NC(=O)N[C@@H](Cc1cccc(O)c1)C(=O)O)C(=O)NC(CN(C)C(=O)C1Cc2ccc(O)cc2CN1)C(=O)N/C=C1/C[C@@H](O)[C@H](N2CCC(=O)NC2=O)O1` (stereo partly drawn), the MIC with Pseudomonas aeruginosa is 6.25 µg/mL.

Take `COc1ccc(Cn2c(=O)ccn([C@@H]3O[C@H]([C@H](O)[C@H](NCCCNC(=O)[C@@H](N)[C@@H](O)C(C)C)C(=O)OC(C)(C)C)[C@@H](O[Si](C)(C)C(C)(C)C)[C@H]3O[Si](C)(C)C(C)(C)C)c2=O)cc1`: the MIC in the data set on Enterococcus faecalis and with Staphylococcus aureus was 4 µg/mL in each case.

Turning to `CCCCCCCCCC(=O)O[C@@H]1[C@H](OC)[C@@H]([C@@H](O[C@@H]2OC(C(=O)N[C@H]3CCC[C@@H](C)NC3=O)=C[C@@H](O)[C@H]2O)C(N)=O)O[C@H]1n1ccc(=O)[nH]c1=O`, the MIC (with Mycobacterium kansasii; with Mycobacterium avium; in data set [2]) was 0.063 µg/mL (≈ 0.0854 µM) in each case.

As for `CCCCCCCCCCCCCCC[C@@H](NC(=O)[C@@H](NC(=O)N[C@H](C(=O)O)C(C)C)[C@@H]1CCNC(=N)N1)C(=O)NCCCNC(C(=O)O)[C@H](O[C@@H]1O[C@H](CN)[C@@H](O)[C@H]1O)[C@H]1O[C@@H](n2ccc(=O)[nH]c2=O)[C@H](O)[C@@H]1O` (stereo partly drawn), the IC50 at 72 h in data set [3] was greater than 100 µg/mL. Moreover, the figures for the MIC in the data set on Enterococcus faecalis and in the data set on Staphylococcus aureus were 0.25 µg/mL and 2 µg/mL, respectively. This compound also registered an IC50 in data set [1] of 740 nM.

In the case of `CCCCCCCCCCCC(=O)O[C@@H]1[C@H](OC)[C@@H]([C@@H](O[C@@H]2OC(C(=O)N[C@H]3CCC[C@@H](C)NC3=O)=C[C@@H](O)[C@H]2O)C(N)=O)O[C@H]1n1ccc(=O)[nH]c1=O`, the MIC (with Mycobacterium kansasii; in the data set with Mycobacterium avium; in data set [2]) was 0.063 µg/mL (≈ 0.0823 µM) throughout.

Turning to `CCCCCCCCCCCCCC(=O)O[C@@H]1[C@H](OC)[C@@H]([C@@H](O[C@@H]2OC(C(=O)N[C@H]3CCC[C@@H](C)NC3=O)=C[C@@H](O)[C@H]2O)C(N)=O)O[C@H]1n1ccc(=O)[nH]c1=O`, the MIC (with Mycobacterium kansasii; in the data set with Mycobacterium avium; in data set [2]) was 0.063 µg/mL (≈ 0.0794 µM) throughout.
